# Columns and labels:
# [1] = tested on: SK-MEL-28 and SK-MEL-5 cells (pERK, pMET, AKT); assay: HGF-stimulated melanoma cell signal transduction assay; assay type: cell-based; settings: 50 nM, 50 ng/mL HGF 1 hr
# Protocol: SK-MEL-5 and SK-MEL-28 cells were added to 12-well plates at 450,000 and 250,000 cells/well, respectively, and incubated overnight. […] Cells were then stimulated with 50 ng/mL HGF for 1 hr. Antibodies were obtained from Cell Signaling Technology.
# U87-MG xenograft glioma [2] = assay: Orthotopic U87-MG xenograft efficacy model (BLI); assay type: in vivo, mice; settings: after two weeks of treatment; bevacizumab 5 mg/kg IP every three days; Compound 1 10 mg/kg BID
# Protocol: Protocol for in vivo xenograft efficacy study. […] Treatments began on Day 31.
# The tumor cells were injected intracerebroventricularly (ICV) and tumor growth was monitored in vivo by quantitation of luciferase-mediated BLI.
# [3] = tested on: circulating TIE2+ and TIE2+/MET+ monocytes; assay: Flow cytometry of circulating TIE2/MET-expressing monocytes from U87-MG xenograft model; assay type: in vivo, mice; settings: single agents; after five weeks of treatment
# Protocol: Flow cytometry of circulating TIE2/MET-expressing monocytes from U87-MG xenograft model. Peripheral blood samples were fixed using Lyse/Fix buffer (BD Biosciences, San Jose, Calif.). BD Fc Block was added and cells were stained with CD11b-PECy7 and Gr1-APC antibodies (BD Pharmingen), and TIE2-PE and MET-FITC antibodies (eBioscience) or isotype controls. Data was collected on an Accuri C6 cytometer. Monocytes were gated using side and forward scatter.
# To monitor these monocytes in the U87 survival model, peripheral monocytes were gated on CD11b+/Grl-surface markers and TIE2^+ and/or TIE2^+/MET^+ cells quantitated. In the U87 glioma survival study, we observed both of these TIE2^+ expressing monocyte populations in the circulation of vehicle-treated mice after five weeks of treatment. […] The lowered population of both of these TIE2^+ monocyte populations in the combination cohort was consistent with greater survival benefit (FIG. 6).
# GSC17 glioblastoma cells = assay: GSC17 glioma stem cell patient-derived xenograft model (tumor volume, immunohistochemistry); assay type: in vivo, mice
# Protocol: For the in vivo experiments, 4- to 6-week-old female nude mice that were strictly inbred at The University of Texas MD Anderson Cancer Center and maintained in the MD Anderson Veterinary in accordance with institutional guidelines were used. For the in vivo experiments, GSC11 (5×10^5) or GSC17 (5×10^4) glioblastoma cells were implanted intracranially into nude mice. […] Control mice for these cohorts were treated with phosphate-buffered saline by i.p. injection and/or with 0.4% HPMC vehicle by oral gavage. One cohort of 10 mice per group were treated continuously and followed for survival. A separate cohort of 9 mice per group were treated continuously until the designated time point, and the tumors from these mice were extracted at 3, 4, 5 weeks in GSC11 xenograft mice model and at 3.5, 4.5, 5.5 weeks in GSC17 xenograft mice model after the start of treatment.
# When the mice treated for the designated time period developed signs and symptoms of advanced tumors, they were euthanized, and their brains were removed, fixed in 4% formaldehyde for 24 hours, and embedded in paraffin. The tissues were then sectioned serially (4 μm) and stained with hematoxylin and eosin (Sigma-Aldrich). Tumor formation and phenotype were determined by histologic analysis of the hematoxylin- and eosin-stained sections. The tumor volume, greatest longitudinal diameter (length), and greatest transverse diameter (width) were measured using an external caliper and Adobe Illustrator software. The tumor volumes were calculated by the following formula: volume=½(length×width^2).
# For immunohistochemical analyses, the tissue sections were deparaffinized and subjected to graded rehydration. After blocking the tissue in 5% horse and goat serum and antigen retrieval solution (citrate buffer, pH 6.0), we incubated the tissue sections overnight at 4° C. with primary antibodies against Factor VIII (1:500; A0082, Dako) to assess microvessel formation, vimentin (1:100; M0725, Dako) to assess mesenchymal marker expression, F4/80 (1:50; 123102, BioLegend) to assess monocyte infiltration, nestin (1:300; Ab6142, Abcam) to assess glioma stem cell marker expression, HGF (1:200; LS-B4657, LSBio), and TIE2 (1:50; Santa Cruz Biotechnology) to assess TIE2-expressing monocyte infiltration. Texas red fluorescein isothiocyanate-conjugated secondary antibodies or anti-rat immunoglobulin G antibodies (Invitrogen) were used for 1 hour at room temperature.
# All statistical analyses were conducted with the GraphPad 6 (InStat) software for Windows 7. Survival analysis was conducted using the Kaplan-Meier method, and differences in survival between treatment groups were assessed using the log-rank test. All other comparisons were performed using an unpaired two-tailed Student t-test. Summary statistics for continuous data are expressed as the mean±standard error of the mean. P values less than 0.05 were considered statistically significant. The nestin staining was assessed using the Image-Pro Plus system version 7.0 (Media Cybernetics) in ×10 fields of at least three tumor samples per group with three to four different sections per tumor sample.
# SKOV-3 = SKOV-3 ovarian xenograft model; settings: in vivo
# U87-MG xenograft glioma [4] = assay: Orthotopic U87-MG xenograft survival model; settings: bevacizumab 10 mg/kg IP twice weekly; Compound 1 10 mg/kg twice daily PO; from Day 12
# Protocol: Protocol for in vivo xenograft survival study. Female nude mice were implanted intracranially with one million luciferase-enabled U87-MG cells. Treatments began on Day 12. Mice (n=10/group) were dosed until the end of study. Three additional mice were treated as above for pharmacodynamic analysis after five weeks. Brain BLI signal was determined using an IVIS 50 optical imaging system (Xenogen, Alameda, Calif.). Animals were injected IP with 150 mg/kg D-Luciferin and imaged 10 min post-injection.
# Treatment began on Day 12, when the mean brain BLI signal was 5.8×10^6 photons/sec, and continued until the end of study. Mice were followed through survival.
smiles,measurement,setting,value
"O=C(Nc1cc(Oc2cc(F)c(NC(=O)C3(C(=O)Nc4ccc(F)cc4)CC3)cc2F)ccn1)C1CC1 [Compound 1, N-(4-(2-(cyclopropanecarboxamido)pyridin-4-yloxy)-2,5-difluorophenyl)-N′-(4-fluorophenyl)cyclopropane-1,1-dicarboxamide]",HGF-induced activation of MET and AKT,[1],inhibited
same,Decrease in BLI signal compared to vehicle,U87-MG xenograft glioma [2],90%
same,Numbers of circulating TIE2+ and TIE2+/MET+ monocyte populations,[3],did not alter
same,Tumor volume at 3.5 weeks,"GSC17 glioblastoma cells; GSC17, bevacizumab 10 mg/kg i.p. twice per week, Compound 1 10 mg/kg oral twice daily",0.1±0.2 mm^3
same,Tumor volume at 4.5 weeks,"GSC17 glioblastoma cells; GSC17, same dosing",9.8±3.9 mm^3
same,Tumor volume at 5.5 weeks,"GSC17 glioblastoma cells; GSC17, same dosing",10.1±1.4 mm^3
same,Factor VIII-positive area,GSC17 glioblastoma cells; GSC17 xenograft mouse model,1.0±0.2%
same,Nestin-positive area,GSC17 glioblastoma cells; GSC17 xenograft mouse model,2.9±1.0%
same,Mesenchymal tumor marker vimentin / EMT (immunohistochemistry),GSC17 glioblastoma cells; GSC-17 glioma model,decreases levels of vimentin
same,Tumor infiltration of TIE2-positive/F4/80-positive cells,GSC17 glioblastoma cells; GSC-17 glioma xenograft model,lower
same,SKOV-3 tumor growth,SKOV-3,only weakly inhibited
same,Median survival,U87-MG xenograft glioma [4],112 days

# — patent US20170079966A1, “INHIBITION OF TUMOR CELL INTERACTIONS WITH THE MICROENVIRONMENT RESULTING IN A REDUCTION IN TUMOR GROWTH AND DISEASE PROGRESSION” (Deciphera Pharmaceuticals, LLC, priority 2014, published 2017)
